Common to all, as to assay type: cell-based
Assay [1] concerns TYK2 Pseudokinase (JH2). Description: HEK-Blue IL-23 reporter assay (SEAP) for profiling TYK2 pseudokinase (JH2) inhibition. Particulars: HEK-Blue IL-23 cells, 10 ng/mL human recombinant IL-23, SEAP reporter; read-out: IL23 IC50 (TYK2 inhibitory activity). The procedure: (§1) HEK-Blue™ IL-23 and IFNα/β cells with a stably-integrated cytokine receptor and STAT3 or STAT1 express STAT-inducible secreted embryonic alkaline phosphatase (SEAP) reporter gene upon cytokine stimulation. These cells are plated in DMEM (Gibco) containing 10% heat-inactivated FBS (Gibco) and 100 U/mL PenStrep (Gibco) at 37° C. under 5% CO2 conditions for 20-22 hours. The cells are then pretreated with serially diluted test compounds for 60 min prior to stimulation with either 10 ng/mL human recombinant IL-23 (Miltenyl Biotech) or 1 ng/mL human recombinant IFNα (InvivoGen) for 22-24 hours for IL-23 or 16-18 h for IFNα. SEAP induction is measured using the QUANTI Blue™ Solution (InvivoGen) according to the manufacturer's instructions.
(Reporter assays use an easily measured gene product as a stand-in for the process of interest.)

In assay [2] the test system is TYK2 Pseudokinase (JH2). In words: HEK-Blue IFNα/β reporter assay (SEAP) for profiling TYK2 pseudokinase (JH2) inhibition. Particulars: HEK-Blue IFNα/β cells, 1 ng/mL human recombinant IFNα, read-out: IFNα IC50 (TYK2 inhibitory activity). The procedure: as §1
In assay [3] the test system is HEK-Blue IL-2 reporter cells. In words: HEK-Blue IL-2 reporter assay (SEAP) for determining selectivity. Conditions: HEK-Blue IL-2 cells, 4 ng/ml human recombinant IL-2, SEAP reporter. The procedure:
(§2) HEK-Blue™ IL-2 and IFNγ reporter cells with a stably-integrated cytokine receptor and STAT5 or STAT1 express STAT-inducible secreted embryonic alkaline phosphatase (SEAP) reporter gene upon cytokine stimulation. These cells were plated in DMEM (Gibco) containing 10% heat-inactivated FBS (Gibco) and 100 U/mL PenStrep (Gibco) at 37° C. under 5% CO2 conditions for 20-22 hours. The cells were then pretreated with serially diluted test compounds for 60 min prior to stimulation with either 4 ng/ml human recombinant IL-2 (Miltenyl Biotech) or 50 ng/ml human recombinant IFNγ (InvivoGen) for 24 hours. SEAP induction was measured using the QUANTI-Blue™ Solution (InvivoGen) according to the manufacturer's instructions.

The test system of assay [4] is HEK-Blue IFNγ reporter cells. In words: HEK-Blue IFNγ reporter assay (SEAP) for determining selectivity. Particulars: 50 ng/ml human recombinant IFNγ, read-out: IFN-γ IC50 (SEAP selectivity). The procedure:
as §2

A word on the IC50: it is the concentration at which inhibition is half-maximal.

For `[2H]C([2H])([2H])NC(=O)c1cnc(NC(=O)C2CC2)cc1Nc1nccc2c1N(C)Cc1nccnc1-2` [Compound 14, 6-(cyclopropanecarboxamido)-N-(methyl-d3)-4-((6-methyl-5,6-dihydropyrazino[2,3-c][1,7]naphthyridin-7-yl)amino)nicotinamide], the IC50 is under 30 nM in the assay with TYK2 Pseudokinase (JH2) [1], under 30 nM with TYK2 Pseudokinase (JH2) [2] and over 1000 nM in assay [3].

Consider `CNC(=O)c1cnc(NC(=O)C2CC2)cc1Nc1cccc2c1N(C)Cc1cccnc1-2` [Compound 15, 6-(cyclopropanecarboxamido)-N-methyl-4-((6-methyl-5,6-dihydrobenzo[h][1,6]naphthyridin-7-yl)amino)nicotinamide], for which the IC50 was under 30 nM in the assay on TYK2 Pseudokinase (JH2) [1], under 30 nM in the assay with TYK2 Pseudokinase (JH2) [2], over 1000 nM in assay [3] and 30 to 300 nM in assay [4].

For `[2H]C([2H])([2H])NC(=O)c1cnc(NC(=O)C2CC2)cc1Nc1nccc2c1N(C)Cc1cccnc1-2` [Compound 19, 6-(cyclopropanecarboxamido)-N-(methyl-d3)-4-((6-methyl-5,6-dihydropyrido[3,4-h][1,6]naphthyridin-7-yl)amino)nicotinamide], the concentration for half-maximal inhibition (IC50) with TYK2 Pseudokinase (JH2) [1] was under 30 nM; in the assay on TYK2 Pseudokinase (JH2) [2] it was under 30 nM; in assay [3], over 1000 nM; in assay [4] it was 300 to 1000 nM.

`[2H]C([2H])([2H])NC(=O)c1cnc(NC(=O)C2CC2)cc1Nc1cccc2c1N(C)C([2H])([2H])c1cccnc1-2` [Compound 20, 6-(cyclopropanecarboxamido)-N-(methyl-d3)-4-((6-methyl-5,6-dihydrobenzo[h][1,6]naphthyridin-7-yl-5,5-d2)amino)nicotinamide]: the IC50 with TYK2 Pseudokinase (JH2) [1] is under 30 nM; in the assay with TYK2 Pseudokinase (JH2) [2] it was under 30 nM; in assay [3], over 1000 nM; in assay [4], 30 to 300 nM.

For the compound `[2H]C([2H])([2H])NC(=O)c1nnc(NC(=O)C2CC2)cc1Nc1cccc2c1N(C)C([2H])([2H])c1cc(F)cnc1-2` [Compound 21, 6-(cyclopropanecarboxamido)-4-((3-fluoro-6-methyl-5,6-dihydrobenzo[h][1,6]naphthyridin-7-yl-5,5-d2)amino)-N-(methyl-d3)pyridazine-3-carboxamide], the IC50 in the assay with TYK2 Pseudokinase (JH2) [1] is under 30 nM; in the assay with TYK2 Pseudokinase (JH2) [2], 30 to 300 nM; in assay [3] it was 300 to 1000 nM; in assay [4], 30 to 300 nM.

Take `[2H]C([2H])([2H])NC(=O)c1cnc(NC(=O)C2CC2)cc1Nc1cccc2c1N(C)C([2H])([2H])c1cc(F)cnc1-2` [Compound 22, 6-(cyclopropanecarboxamido)-4-((3-fluoro-6-methyl-5,6-dihydrobenzo[h][1,6]naphthyridin-7-yl-5,5-d2)amino)-N-(methyl-d3)nicotinamide]: the figures for the IC50 with TYK2 Pseudokinase (JH2) [1] and in the assay with TYK2 Pseudokinase (JH2) [2] were under 30 nM and 30 to 300 nM, respectively.

Take `[2H]C([2H])([2H])NC(=O)c1nnc(NC(=O)C2CC2)cc1Nc1cccc2c1N(C)C([2H])([2H])c1ccc(C)nc1-2` [Compound 23, 6-(cyclopropanecarboxamido)-4-((2,6-dimethyl-5,6-dihydrobenzo[h][1,6]naphthyridin-7-yl-5,5-d2)amino)-N-(methyl-d3)pyridazine-3-carboxamide]: the IC50 was under 30 nM with TYK2 Pseudokinase (JH2) [1], under 30 nM in the assay with TYK2 Pseudokinase (JH2) [2], over 1000 nM in assay [3] and 30 to 300 nM in assay [4].

On to `[2H]C([2H])([2H])NC(=O)c1cnc(NC(=O)C2CC2)cc1Nc1cccc2c1N(C)C([2H])([2H])c1ccc(C(F)(F)F)nc1-2` [Compound 25, 6-(cyclopropanecarboxamido)-N-(methyl-d3)-4-((6-methyl-2-(trifluoromethyl)-5,6-dihydrobenzo[h][1,6]naphthyridin-7-yl-5,5-d2)amino)nicotinamide], for which the 50% inhibitory concentration (IC50) with TYK2 Pseudokinase (JH2) [1] fell in the range of 30 to 300 nM; in the assay with TYK2 Pseudokinase (JH2) [2], 300 to 1000 nM.

The record behind these values is US12600721B2, “TYK2 inhibitors and uses thereof” (Sudo Biosciences Limited, priority 2021, dated 2026).
